Laboratory results as given in PMC10223284, “Category-Based Toxicokinetic Evaluations of Data-Poor Per- and Polyfluoroalkyl Substances (PFAS) using Gas Chromatography Coupled with Mass Spectrometry” (Toxics, 2023).
“And” between values parts separate entries of the source, which are not always exact repeats. Equal values may be shown once.

Key:
[1] = tested on: human plasma; assay: Chemical stability in plasma over the UC assay time course (T5hr/T1hr); settings: for % remaining_PPB: chemical remaining in plasma over the PPB assay time course, NS = no significant loss; for Fstable.Med: median fraction stable in plasma, UC assay Level4; for PPB_Stab_Fail: flag for stability failure in the plasma protein binding assay (1 = fail, 0 = pass); for Stability (T5hr/ T1hr), replicates A, B, C: single replicate of one UC run; for Time 1 hr / Time 1 hr, Run-specific Avg: amount measured in plasma sample at 1 hr; for Time 1 hr / Time 5 hr: replicates A, B, C; for Time 1 hr / Time 1 hr, Run-specific Avg / Time 5 hr / Time 5 hr, Run-specific Avg: unit not given; for Time 1 hr, Run-specific Avg / Time 5 hr, Run-specific Avg: run average; for Time 5 hr / Time 5 hr, Run-specific Avg: amount measured in plasma sample at 5 hr
[2] = in vitro; settings: both, human, plasma
[3] = tested on: human plasma; assay: Ultracentrifugation (UC) plasma protein binding assay, fraction unbound in plasma (fup); settings: for Fup.Med: median fraction unbound in plasma; for Fup.Med / Fup.point: UC assay Level4; for Fup.point: point estimate of fraction unbound in plasma; for Fraction Unbound (fu), replicates A, B, C: single replicate of one UC run (aqueous fraction / Time 5 hr); for Aqueous Fraction / Aqueous Fraction, Run-specific Avg: amount measured in aqueous fraction after ultracentrifugation, unit not given; for Aqueous Fraction: replicates A, B, C; for Aqueous Fraction, Run-specific Avg: run average; for Mean fu: fraction unbound in human plasma, ultracentrifugation, some values based on eLOQ
[4] = Abiotic loss in negative controls of the hepatocyte clearance assay (cell-free media, metabolically inactivated hepatocytes); type: in vitro ADME; settings: flag for stability failure in hepatocyte clearance assay controls (1 or Fst = fail, 0 = pass)
Protocol: The hepatic metabolic stability assay measures the loss of a parent compound over time in a substrate-depletion approach. Briefly, hepatocyte suspensions, after a viability assessment, were diluted in complete William’s medium E (containing dexamethasone and cell maintenance cocktail B) prior to addition to 96-well polypropylene plates containing an equal volume of media spiked with the test compound (1 μM assay concentration; assay cell density = 50,000 cells/100 μL) and maintained at 37 °C with shaking. At each time point, relevant plates were crashed with an equal volume of ice-cold acetonitrile, centrifuged, and supernatant transferred to a new plate prior to storage at <−70 °C until quantitative analysis. Controls, run in parallel, included cell-free (i.e., media only) and metabolically inactivated hepatocytes to evaluate abiotic chemical stability in the aqueous media matrix with and without cellular protein. In preliminary runs, these controls were run at T0 and T240 only. If significant instability was noted, the hepatocyte clearance assay was rerun, including cell-free samples at each time point and metabolically inactivated hepatocytes at selected time points.
Negative controls, including media only and metabolically inactivated hepatocyte controls, were included to monitor abiotic loss (i.e., background clearance) during the assay. Where significant compound loss occurred using the analysis described above, background clearance rates were calculated and used to background-adjust hepatic metabolic clearance rates. Where chemicals were cleared prior to the end of the analysis, at 240 min (T240), the corresponding negative control timepoint was used for background subtraction. Any chemicals displaying a 50% or more abiotic loss at T120 were deemed unstable and were excluded from further analyses.

[5] = Mean fu, fraction unbound in human plasma, ultracentrifugation, some values based on eLOQ
[6] = average of one UC run (run date in line above)
[7] = mean T5hr/T1hr ratio over all replicates and runs, plasma
[8] = Fraction Unbound (fu), Run-specific Avg, average of one UC run (run date in line above)
[9] = Fraction Unbound (fu), replicates A, B, C, single replicate of one UC run (aqueous fraction / Time 5 hr)
[10] = Mean Fu, mean fraction unbound over all replicates and runs, UC assay, human plasma
[11] = mean T5hr/T1hr ratio in plasma over all replicates/runs
[12] = Fraction Unbound (fu), Run-specific Avg, average of one UC run
[13] = Fraction Unbound (fu), individual replicates A, B, C of the UC run named in c8
[14] = Mean Fu, mean fraction unbound in human plasma over all UC replicates/runs
[15] = mean over all UC runs and replicates, human plasma

Row | Structure (SMILES) | % remaining_PPB [1] | Fstable.Med [1] | fraction unbound [2, 5] | Fup.Med [3] | Fup.point [3] | Hep_Stab_Fail [4] | Stability (T5hr/ T1hr), Run-specific Avg [1, 6] | PPB_Stab_Fail [1] | Mean Stability [1, 7] | Stability (T5hr/ T1hr), replicates A, B, C [1] | Fraction Unbound (fu), replicates A, B, C [3] | Time 1 hr [1] | Time 1 hr, Run-specific Avg [1] | Time 5 hr [1] | Time 5 hr, Run-specific Avg [1] | Stability (T5hr/ T1hr), Run-specific Avg ([1]; average of one UC run) | Mean Stability [1, 11] | fraction unbound [2, 12] | Aqueous Fraction [3] | Aqueous Fraction, Run-specific Avg [3] | other results
1 | C=C(C)C(=O)OCCC(F)(F)C(F)(F)C(F)(F)C(F)(F)C(F)(C(F)(F)F)C(F)(F)F [(Perfluoro-5-methylhexyl)ethyl 2-methylprop-2-enoate] | 63.6% | 0.43 | 0.0603 | 4.30E-06 | 0.0603 | 1 | – | – | – | – | – | – | – | – | – | – | – | – | – | – | –
2 | OCCCC(F)(F)C(F)(F)C(F)(F)F [3-(Perfluoropropyl)propanol] | – | 0.2 | 0.203 | 0.202 | 0.205 | 1 | 0.890 | 0 | 0.892 | 0.858 and 0.887 and 0.929 | 0.224 and 0.207 | – | – | – | – | – | – | – | – | – | fraction unbound [2, 8]: 0.2; fraction unbound [2, 9]: 0.179; fraction unbound [2, 10]: 0.203
3 | OCCCC(F)(F)C(F)(F)C(F)(F)C(F)(F)C(F)(F)C(F)(F)C(F)(F)C(F)(F)F [3-(Perfluorooctyl)propanol] | – | 0.272 | 0.0357 | 0.0348 | 0.0352 | 1 | 0.894 | 0 | 0.893 | 0.9156 and 0.9452 and 0.8196 | 0.03475 and 0.04477 | – | – | – | – | – | – | – | – | – | fraction unbound [2, 9]: 0.0277; fraction unbound [2, 10]: 0.036
4 | FC(F)(I)C(F)(F)C(F)(F)C(F)(F)I [Perfluoro-1,4-diiodobutane] | – | 0.11 | 0.0055 | 0.00723 | 0.00533 | 1 | – | 0 | – | – | – | 1436.94 and 1194.41 and 1213.84 | 1281.73 | 860.037 and 995.998 and 977.671 | 928.02 | 0.724 | 0.740 | 0.00546 | 6.005 and 3.594 and 5.646 | 5.08 | fraction unbound [2, 13]: 0.00698; fraction unbound [2, 14]: 0.00546
5 | OCC(F)(F)C(F)(F)C(F)(F)CO [Hexafluoroamylene] | – | 0.988 | – | 0.627 | 0.675 | – | – | – | – | – | – | 5856.63 and 5544.86 and 5920.14 | 5773.88 | 3672.88 and 3626.61 and 3711.47 | 3649.75 | 0.632 | 0.636 | 0.06 | 160.563 and 273.771 and 229.145 | 221.16 | fraction unbound [2, 13]: 0.0437; fraction unbound [2, 14]: 0.06
6 | FC(F)(I)C(F)(F)C(F)(F)C(F)(F)C(F)(F)C(F)(F)I [1,6-Diiodoperfluorohexane] | 72% | 0.577 | 0.026 | 0.295 | 0.267 | 1 | 0.687 | 0 | 0.685 | 0.7185 and 0.686 and 0.6511 | 0.5494 and 0.308 and 0.227 | 8774.08 and 7745.84 and 7383.58 | 7967.83 | 5893.98 and 5567.71 and 5583.03 | 5730.84 | 0.719 | 0.718 | 0.0256 | 94.9667 and 176.609 and 162.022 | 144.53 | fraction unbound [2, 8]: 0.36; fraction unbound [2, 13]: 0.0161; fraction unbound [2, 10]: 0.361
7 | C=C(C)C(=O)OCC(F)(F)C(F)(F)C(F)(F)C(F)F [1H,1H,5H-Perfluoropentyl methacrylate] | 0.01% | 0.00623 | – | 0.267 | 0.249 | 1 | – | 1 | – | – | – | 1599.93 and 1543.59 and 1278.91 | 1474.15 | 75.2443 and 72.767 and 69.0294 | 74.01 | 0.050 | 0.050 | 0.25 | 25.8202 and 12.2631 and 16.0467 | 18.04 | fraction unbound [2, 14]: 0.248
8 | OCCCCC(F)(F)C(F)(F)C(F)(F)C(F)(F)F [4:4 Fluorotelomer alcohol] | 100% | 0.181 | – | 0.0608 | 0.0704 | 1 | – | 0 | – | – | – | 11379.4 and 9453.92 and 9594.35 | 10142.56 | 9012.64 and 8012.91 and 8571.88 | 8512.77 | 0.839 | 0.850 | – | 460.145 and 470.255 and 706.065 | 545.49 | Fraction Unbound (fu), Run-specific Avg ([3]; average of one UC run): 0.064; Mean fu [3]: 0.0640
9 | C=CC(=O)OCCC(F)(F)C(F)(F)C(F)(F)C(F)(F)F [2-(Perfluorobutyl)ethyl acrylate] | 0% | 0.000485 | – | 2.26E-06 | 0.078 | 1 | – | 1 | – | – | – | – | – | – | – | – | – | – | – | – | –
10 | FC(F)(F)C(F)(F)C(F)(F)C(F)(F)CCI [1H,1H,2H,2H-Perfluorohexyl iodide] | – | 0.99 | – | 0.0824 | 0.0905 | 1 | 0.871 | 0 | 0.928 | 1.126 and 0.894 and 0.765 | 0.08012 and 0.1098 and 0.1042 | 4814.29 and 5234.67 and 5102.52 | 5050.49 | 2541.5 and 2572.68 and 2719.11 | 2557.09 | 0.506 | 0.517 | – | 429.404 and 197.254 and 248.159 | 291.61 | Fraction Unbound (fu), Run-specific Avg [3, 6]: 0.10; Mean fu [3]: 0.0980
11 | OCC(F)(F)C(F)(F)C(F)(F)C(F)(F)C(F)(F)C(F)(F)F [6:1 Fluorotelomer alcohol] | – | 0.204 | – | 0.0187 | 0.0386 | 1 | – | 0 | – | – | – | 10923.7 and 9182.55 and 11162.4 | 10422.90 | 5789.66 and 11336.8 and 10690.6 | 8563.21 | 0.822 | 0.907 | – | 212.981 and 210.941 and 147.734 | 190.55 | Fraction Unbound (fu), Run-specific Avg ([3]; average of one UC run): 0.0231
12 | NC(=O)C(F)(F)C(F)(F)C(F)(F)C(F)(F)C(F)(F)C(F)(F)C(F)(F)F [Perfluorooctanamide] | – | 0.738 | – | 0.0252 | 0.0263 | 1 | – | 0 | – | – | – | – | – | – | – | – | – | – | – | – | Mean Stability (T5hr/T1hr) [1, 15]: 0.838; Stability (T5hr/ T1hr), Run-specific Avg ([1]; run-specific average): 0.841; Mean fu [3]: 0.0282; Mean Fu (fraction unbound) [3, 15]: 0.028; Fraction Unbound (fu), Run-specific Avg ([3]; run-specific average): 0.0266
13 | C=CC(=O)OCC(F)(F)C(F)(F)C(F)(F)COC(=O)C=C [1H,1H,5H,5H-Perfluoro-1,5-pentanediol diacrylate] | 0% | 0.00466 | – | 7.62E-09 | 0.177 | 1 | – | 1 | – | – | – | – | – | – | – | – | – | – | – | – | –
